Test results published in patent publication US9133162B2, “Substituted quinoline compounds and methods of use” (SUNSHINE LAKE PHARMA CO., LTD., priority 2011, dated 2015).
pIC50: −log10 of the molar value. “Also recorded” adds a separate entry of the source. One block for each molecule: values may come before it.

How the values were obtained:
Axl (h) = Axl (h) (Homo sapiens (Human), UniProt P30530); assay: Axl (h) kinase assay; assay type: biochemical
Method: Compound dilutions are performed in DMSO and added to assay wells to a final DMSO concentration of 1%. Each data point is measured in duplicate, and at least two duplicate assays are performed for each individual compound determination. Enzyme is added to final concentrations of 10 nM or 20 nM, for example.
The above assay procedure can be used to determine the IC50 for inhibition and/or the inhibition constant, Ki.
(specific activity approx. 500 cpm/pmol, concentration as required). The reaction is initiated by the addition of the MgATP mix. After incubation for 40 minutes at room temperature, the reaction is stopped by the addition of 3% phosphoric acid solution. 10 μL of the reaction is then spotted onto a P30 filtermat and washed three times for 5 minutes in 75 mM phosphoric acid and once in methanol prior to drying and scintillation counting.

[1] = tested on: HUH 7 hepatocarcinoma cells; assay: Huh-7 tumor xenograft model, TGI; assay type: in vivo, athymic nude mice; settings: 20 mg/kg p.o. QD, 14 days
Method: (§1) The efficacy of compounds disclosed herein was evaluated in a standard murine model of tumorigenesis. Human tumor cells (U87MG glioblastoma cells, MKN45 Gastric Adenocarcinoma cells, Caki-1 renal carcinoma cells, HUH 7 hepatocarcinoma cells, NCI-H441 lung adenocarcinoma epithelial cells, MDA-MB-231 breast adenocarcinoma cells, SMMC-7721 hepatoma cells, all from ATCC) were expended in culture, harvested, and injected subcutaneously onto the rear flank of 6-7 week old female athymic nude mice (BALB/cA nu/nu, Shanghai SLAC Laboratory Animal, Co.) (n=10 for vehicle group, n=8 for each dosing group). When tumors reached a volume of 100-250 mm^3, animals were randomly divided into vehicle control (for example, 2% HPMC+1% Tween-80 in water) and compound groups. […]
(§2) Progression of tumor growth is assessed by tumor volumes and recorded as a function of time. The long (L) and short (W) axes of the subcutaneous tumors were measured with calipers twice weekly, and the tumor volume (TV) calculated as (L×W^2)/2). TGI was calculated from the difference between the median tumor volumes of vehicle-treated and drug-treated mice, expressed as a percentage of the median tumor volume of the vehicle-treated control group, by the following relation: […]

[2] = tested on: Caki-1 renal carcinoma cells; assay: Caki-1 tumor xenograft model, TGI; assay type: in vivo, athymic nude mice; settings: 20 mg/kg p.o. QD, 21 days
Method: as §1, §2

human VEGF-R2 = human VEGF-R2 (Homo sapiens (Human), UniProt P35968); assay: VEGF-R2 cellular phosphorylation assay in HUE cells (Sandwich-ELISA); assay type: cell-based; settings: VEGF-A stimulated
Method: (§3) The autophosphorylation level was determined Sandwich-ELISA technique.
VEGF-R2 Phosphorylation Assay:
Immortalized human umbilical vein endothelial cells (HUE) are known to overexpress human VEGF-R2. Stimulation of these cells with its physiological ligand VEGF-A results in a robust receptor autophosphorylation. Compounds are preincubated before cell stimulation to allow thorough target binding. Stimulation conditions are optimized to determine dose-related inhibition of the phospho-VEGF-R2 signal, which is subsequently quantified by Sandwich-ELISA technique. The assay is validated based on known inhibitors of VEGF-R2 kinase activity.

[3] = tested on: NCI-H441 lung adenocarcinoma epithelial cells; assay: NCI-H441 tumor xenograft model, TGI; assay type: in vivo, athymic nude mice; settings: 20 mg/kg p.o. QD, 21 days
Method: as §1, §2

[4] = tested on: MKN45 Gastric Adenocarcinoma cells; assay: MKN45 tumor xenograft model, TGI; assay type: in vivo, athymic nude mice; settings: 20 mg/kg p.o. QD, 16 days
Method: as §1, §2

c-Met (h) = c-Met (h) (Homo sapiens (Human), UniProt P08581); assay: c-Met (h) kinase assay (33P-ATP filter, Millipore); assay type: biochemical
c-Met = c-Met (Homo sapiens (Human), UniProt P08581); assay: cell-based
Method: The autophosphorylation level was determined Sandwich-ELISA technique. IC50 values are determined by testing 8 compound concentrations in semi-logarithmic steps (each concentration in duplicates). The steps of the cellular phosphorylation assay are illustrated in FIG. 1.
c-Met Phosphorylation Assay:
The human gastric adenocarcinoma cell line MKN45 is known to overexpress c-Met. c-Met overexpression results in a constitutive, ligand-independent autophosphorylation of the kinase. […] Phospho-MET signal is subsequently quantified by Sandwich-ELISA technique. The assay is validated based on known inhibitors of MET kinase activity.

U87MG glioblastoma cells = assay: U87MG tumor xenograft model, TGI; assay type: in vivo, athymic nude mice; settings: 10 mg/kg p.o. QD, 16 days
Method: as §1, §2

KDR (h) (VEGF-R2(h)) = KDR (h) (VEGF-R2(h)) (Homo sapiens (Human), UniProt P35968); assay: KDR (h) (VEGF-R2(h)) kinase assay; assay type: biochemical
Method: Kinase assays can be performed by measurement of incorporation of —^33P ATP into immobilized myelin basic protein (MBP). High binding white 384 well plates (Greiner) are coated with MBP (Sigma #M-1891) by incubation of 60 μl/well of 20 μg/ml MBP in Tris-buffered saline (TBS; 50 mM Tris pH 8.0, 138 mM NaCl, 2.7 mM KCl) for 24 hours at 4° C. Plates are washed 3× with 100 μl TBS. Kinase reactions are carried out in a total volume of 34 μl in kinase buffer (5 mM Hepes pH 7.6, 15 mM NaCl, 0.01% bovine gamma globulin (Sigma #I-5506), 10 mM MgCl2, 1 mM DTT, 0.02% TritonX-100). Compound dilutions are performed in DMSO and added to assay wells to a final DMSO concentration of 1%. Each data point is measured in duplicate, and at least two duplicate assays are performed for each individual compound determination. Enzyme is added to final concentrations of 10 nM or 20 nM, for example. A mixture of unlabeled ATP and —^33P ATP is added to start the reaction (2×10^6 cpm of —^33P ATP per well (3000 Ci/mmole) and 10 μM unlabeled ATP, typically. The reactions are carried out for 1 hour at room temperature with shaking. Plates are washed 7× with TBS, followed by the addition of 50 μl/well scintillation fluid (Wallac). Plates are read using a Wallac Trilux counter. This is only one format of such assays; various other formats are possible, as known to one skilled in the art.
The above assay procedure can be used to determine the IC50 for inhibition and/or the inhibition constant, Ki. The IC50 is defined as the concentration of compound required to reduce the enzyme activity by 50% under the condition of the assay. The IC50 value is estimated by preparing a 10 point curve using a log dilution series (for example, a typical curve may be prepared using the following compound concentrations; 100 μM, 30 μM, 10 μM, 3 μM, 1 μM, 0.3 μM, 0.1 μM, 0.03 μM, 0.01 μM and […]).
The kinase assays described herein were performed at Millipore UK Ltd, Dundee Technology Park, Dundee DD2 1SW, UK
KDR (h) (VEGF-R2(h)) Assay […]

[5] = tested on: MDA-MB-231 breast adenocarcinoma cells; assay: MDA-MB-231 tumor xenograft model, TGI; assay type: in vivo, athymic nude mice; settings: for TGI % (on last day of dosing) MDA-MB-231: 21 days (Day 21); for inhibition of growth of MDA-MB-231 xenograft tumors (in words): 10, 20 and 40 mg/kg p.o. QD, 21 days
Method: The efficacy of compounds disclosed herein was evaluated in a standard murine model of tumorigenesis. Human tumor cells (U87MG glioblastoma cells, MKN45 Gastric Adenocarcinoma cells, Caki-1 renal carcinoma cells, HUH 7 hepatocarcinoma cells, NCI-H441 lung adenocarcinoma epithelial cells, MDA-MB-231 breast adenocarcinoma cells, SMMC-7721 hepatoma cells, all from ATCC) were expended in culture, harvested, and injected subcutaneously onto the rear flank of 6-7 week old female athymic nude mice (BALB/cA nu/nu, Shanghai SLAC Laboratory Animal, Co.) (n=10 for vehicle group, n=8 for each dosing group). When tumors reached a volume of 100-250 mm^3, animals were randomly divided into vehicle control (for example, 2% HPMC+1% Tween-80 in water) and compound groups. Subsequent administration of compound by oral gavage (for example, 3-50 mpk/dose, dissolved in 2% HPMC+1% Tween-80 in water) begins anywhere from day 0 to day 15 post tumor cell challenge and generally continues with once a day for the duration of the experiment. The studies using tumor xenograft animal models described herein were performed at Shanghai Institute of Materia Medica, Chinese Academy of Sciences, 555 Zu Chong Zhi Road, Zhang Jiang Hi-Tech Park, Pudong, Shanghai, 201203, China.
Progression of tumor growth is assessed by tumor volumes and recorded as a function of time. The long (L) and short (W) axes of the subcutaneous tumors were measured with calipers twice weekly, and the tumor volume (TV) calculated as (L×W^2)/2). TGI was calculated from the difference between the median tumor volumes of vehicle-treated and drug-treated mice, expressed as a percentage of the median tumor volume of the vehicle-treated control group, by the following relation:
Initial statistical analysis is done by repeated measures analysis of variance (RMANOVA). Followed by Scheffe psot hoc testing for multiple comparisons. Vehicle alone (2% HPMC+1% Tween-80, or the like) is the negative control.
FIG. 2 illustrates the tumor growth inhibition effects of Example 1 in MDA-MB-231 breast adenocarcinoma model. Example 1 was administrated orally (p.o.) at doses of 10, 20 and 40 mg/kg once a day (QD), for 21 consecutive days.
FIG. 3 illustrates the tumor growth inhibition effects of Example 2 in MDA-MB-231 breast adenocarcinoma model. Example 2 was administrated orally (p.o.) at doses of 10, 20 and 40 mg/kg once a day (QD), for 21 consecutive days.

AXL = AXL (Homo sapiens (Human), UniProt P30530); assay: Axl cellular phosphorylation assay in transfected MEF cells (Sandwich-ELISA); assay type: cell-based; settings: MEF cells expressing full-length AXL
Method: as §3
Axl Phosphorylation Assay:
Cellular AXL phosphorylation assay was generated on a mouse embryonal fibroblast (MEF) background. Cells were transfected to express a full-length AXL protein. […] PhosphoAXL levels are quantified by Sandwich-ELISA technique.

Chain of c-Met (h) (P08581 25-1390): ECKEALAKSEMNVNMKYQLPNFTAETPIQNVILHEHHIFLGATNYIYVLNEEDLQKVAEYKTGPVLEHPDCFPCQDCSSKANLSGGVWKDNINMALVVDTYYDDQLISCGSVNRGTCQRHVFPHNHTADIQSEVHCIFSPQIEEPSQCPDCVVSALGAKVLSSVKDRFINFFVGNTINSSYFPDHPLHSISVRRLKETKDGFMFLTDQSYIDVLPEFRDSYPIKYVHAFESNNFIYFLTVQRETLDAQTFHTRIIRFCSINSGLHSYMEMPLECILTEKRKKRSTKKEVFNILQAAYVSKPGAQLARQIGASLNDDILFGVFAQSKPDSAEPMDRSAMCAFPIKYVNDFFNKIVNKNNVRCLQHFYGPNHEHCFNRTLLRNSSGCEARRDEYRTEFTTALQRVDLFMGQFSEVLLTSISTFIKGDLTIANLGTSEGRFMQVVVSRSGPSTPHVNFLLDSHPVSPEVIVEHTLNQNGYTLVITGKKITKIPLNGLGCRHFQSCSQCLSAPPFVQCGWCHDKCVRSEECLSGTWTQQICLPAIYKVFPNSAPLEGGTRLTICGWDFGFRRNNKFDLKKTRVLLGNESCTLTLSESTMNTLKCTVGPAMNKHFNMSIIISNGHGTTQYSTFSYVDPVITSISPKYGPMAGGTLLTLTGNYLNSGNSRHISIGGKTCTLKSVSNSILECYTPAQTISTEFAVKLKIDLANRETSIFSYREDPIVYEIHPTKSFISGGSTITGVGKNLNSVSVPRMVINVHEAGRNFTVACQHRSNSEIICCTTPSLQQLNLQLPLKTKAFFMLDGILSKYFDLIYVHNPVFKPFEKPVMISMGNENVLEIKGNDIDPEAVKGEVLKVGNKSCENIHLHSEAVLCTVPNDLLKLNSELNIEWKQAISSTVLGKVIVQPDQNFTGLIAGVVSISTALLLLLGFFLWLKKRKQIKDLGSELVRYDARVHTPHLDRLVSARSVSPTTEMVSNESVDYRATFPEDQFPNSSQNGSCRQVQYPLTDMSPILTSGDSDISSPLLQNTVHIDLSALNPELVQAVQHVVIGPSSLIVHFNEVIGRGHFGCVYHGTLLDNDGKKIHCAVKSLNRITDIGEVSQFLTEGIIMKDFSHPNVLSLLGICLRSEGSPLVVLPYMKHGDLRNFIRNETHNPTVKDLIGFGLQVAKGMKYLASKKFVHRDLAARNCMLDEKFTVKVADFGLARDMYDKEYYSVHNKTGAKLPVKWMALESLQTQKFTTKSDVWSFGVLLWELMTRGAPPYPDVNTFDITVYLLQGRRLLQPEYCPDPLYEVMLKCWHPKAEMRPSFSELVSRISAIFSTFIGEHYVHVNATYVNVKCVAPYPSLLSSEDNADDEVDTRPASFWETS
Chain of KDR (h) (VEGF-R2(h)) (P35968 20-1356): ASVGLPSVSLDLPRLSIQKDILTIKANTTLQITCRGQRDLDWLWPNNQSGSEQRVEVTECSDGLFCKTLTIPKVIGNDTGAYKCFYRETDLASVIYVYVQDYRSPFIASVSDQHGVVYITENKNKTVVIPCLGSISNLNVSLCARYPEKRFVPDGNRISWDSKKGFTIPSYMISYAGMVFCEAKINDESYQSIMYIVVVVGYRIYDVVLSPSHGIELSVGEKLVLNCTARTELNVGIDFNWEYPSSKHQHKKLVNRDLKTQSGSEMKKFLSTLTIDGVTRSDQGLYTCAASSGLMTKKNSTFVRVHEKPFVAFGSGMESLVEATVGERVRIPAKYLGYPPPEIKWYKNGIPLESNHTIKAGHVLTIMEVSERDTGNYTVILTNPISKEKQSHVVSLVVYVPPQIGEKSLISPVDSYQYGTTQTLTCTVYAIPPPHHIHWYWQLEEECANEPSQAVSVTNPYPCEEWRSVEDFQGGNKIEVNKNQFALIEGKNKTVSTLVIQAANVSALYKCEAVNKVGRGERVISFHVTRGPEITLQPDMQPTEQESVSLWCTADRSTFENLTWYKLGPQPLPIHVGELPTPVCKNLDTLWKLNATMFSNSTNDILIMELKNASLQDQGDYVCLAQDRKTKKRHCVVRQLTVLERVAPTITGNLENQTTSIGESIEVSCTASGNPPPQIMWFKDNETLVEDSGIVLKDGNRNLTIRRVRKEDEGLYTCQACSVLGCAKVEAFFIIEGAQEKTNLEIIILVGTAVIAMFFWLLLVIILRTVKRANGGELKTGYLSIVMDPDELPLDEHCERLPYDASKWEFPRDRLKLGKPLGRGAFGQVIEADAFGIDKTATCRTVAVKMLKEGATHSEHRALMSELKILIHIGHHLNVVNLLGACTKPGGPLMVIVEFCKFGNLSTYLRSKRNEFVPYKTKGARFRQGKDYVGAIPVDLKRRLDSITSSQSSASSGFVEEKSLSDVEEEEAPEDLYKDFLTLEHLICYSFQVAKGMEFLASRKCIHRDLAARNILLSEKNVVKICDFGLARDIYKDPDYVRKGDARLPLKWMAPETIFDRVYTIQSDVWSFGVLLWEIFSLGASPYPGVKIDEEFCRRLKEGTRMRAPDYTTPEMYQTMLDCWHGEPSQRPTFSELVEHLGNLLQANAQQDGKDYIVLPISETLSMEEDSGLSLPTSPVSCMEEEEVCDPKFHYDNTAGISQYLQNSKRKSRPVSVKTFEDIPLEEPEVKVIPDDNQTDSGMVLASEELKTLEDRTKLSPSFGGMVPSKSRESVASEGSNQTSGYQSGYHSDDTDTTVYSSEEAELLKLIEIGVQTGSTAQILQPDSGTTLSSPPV
Chain of c-Met (P08581 25-1390): as the sequence (P08581 25-1390) above
Chain of Axl (h) (P30530 26-894): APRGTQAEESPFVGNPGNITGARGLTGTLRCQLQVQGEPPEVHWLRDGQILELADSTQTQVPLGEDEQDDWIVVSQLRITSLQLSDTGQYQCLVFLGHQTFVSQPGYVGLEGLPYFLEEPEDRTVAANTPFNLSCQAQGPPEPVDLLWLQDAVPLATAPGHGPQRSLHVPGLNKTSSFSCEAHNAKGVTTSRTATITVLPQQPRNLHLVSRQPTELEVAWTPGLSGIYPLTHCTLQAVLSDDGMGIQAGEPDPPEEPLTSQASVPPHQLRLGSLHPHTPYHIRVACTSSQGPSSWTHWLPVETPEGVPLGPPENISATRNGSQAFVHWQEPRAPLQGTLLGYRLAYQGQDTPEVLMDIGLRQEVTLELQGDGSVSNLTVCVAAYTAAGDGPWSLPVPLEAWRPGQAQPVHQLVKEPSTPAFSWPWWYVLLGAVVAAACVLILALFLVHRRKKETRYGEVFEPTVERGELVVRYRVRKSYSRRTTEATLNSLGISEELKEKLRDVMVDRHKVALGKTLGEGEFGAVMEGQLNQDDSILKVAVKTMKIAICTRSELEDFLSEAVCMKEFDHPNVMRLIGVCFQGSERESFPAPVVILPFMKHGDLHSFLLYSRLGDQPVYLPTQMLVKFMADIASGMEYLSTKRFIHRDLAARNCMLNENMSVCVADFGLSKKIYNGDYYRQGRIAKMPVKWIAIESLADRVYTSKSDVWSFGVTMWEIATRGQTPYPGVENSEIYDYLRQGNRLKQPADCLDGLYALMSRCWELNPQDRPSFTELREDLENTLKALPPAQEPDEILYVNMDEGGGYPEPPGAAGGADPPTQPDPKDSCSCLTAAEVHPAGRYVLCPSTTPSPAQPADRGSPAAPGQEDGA
Chain of AXL (P30530 26-894): as above
Chain of human VEGF-R2 (P35968 20-1356): as the sequence (P35968 20-1356) above

Structure (SMILES): Cc1c(C(=O)Nc2ccc(Oc3ccnc4cc(OCC(C)(C)O)ccc34)c(F)c2)c(=O)n(-c2ccccc2)n1C [Example 1, N-(3-fluoro-4-((7-(2-hydroxy-2-methylpropoxy)quinolin-4-yl)oxy)phenyl)-1,5-dimethyl-3-oxo-2-phenyl-2,3-dihydro-1H-pyrazole-4-carboxamide]
pIC50 (Axl (h)): 7.96 | TGI % (on last day of dosing) Huh-7 [1]: 53% | TGI % (on last day of dosing) Caki-1 [2]: 87% | pIC50 (human VEGF-R2): 8.77 | TGI % (on last day of dosing) NCI-H441 [3]: 97% | TGI % (on last day of dosing) MKN45 [4]: 97% | pIC50 (c-Met (h)): 7.72 | pIC50 (c-Met): 8.16 | TGI % (on last day of dosing) U87MG (U87MG glioblastoma cells): 98% | pIC50 (KDR (h) (VEGF-R2(h))): 7.43 | TGI % (on last day of dosing) MDA-MB-231 ([5]; 10 mg/kg p.o. QD): 97% | TGI % (on last day of dosing) MDA-MB-231 ([5]; 20 mg/kg p.o. QD): 112% | TGI % (on last day of dosing) MDA-MB-231 ([5]; 40 mg/kg p.o. QD): 120% | inhibition of growth of MDA-MB-231 xenograft tumors (in words) [5]: inhibited the growth; also recorded: statistically significant, dose-dependent inhibition | pIC50 (AXL): > 9.00

pIC50 (c-Met (h)): 7.89
Structure (SMILES): Cc1c(C(=O)Nc2ccc(Oc3ccnc4cc(OC[C@H](C)O)ccc34)cc2)c(=O)n(-c2ccccc2)n1C [Example 12, (S)—N-(4-((7-(2-hydroxypropoxy)quinolin-4-yl)oxy)phenyl)-1,5-dimethyl-3-oxo-2-phenyl-2,3-dihydro-1H-pyrazole-4-carboxamide]

pIC50 (c-Met (h)): 7.82
Structure (SMILES): Cc1c(C(=O)Nc2ccc(Oc3ccnc4cc(OC[C@@H](C)O)ccc34)cc2)c(=O)n(-c2ccccc2)n1C [Example 11, (R)—N-(4-((7-(2-hydroxypropoxy)quinolin-4-yl)oxy)phenyl)-1,5-dimethyl-3-oxo-2-phenyl-2,3-dihydro-1H-pyrazole-4-carboxamide]

pIC50 (c-Met (h)): 7.89
Structure (SMILES): Cc1c(C(=O)Nc2ccc(Oc3ccnc4cc(OCC(C)(C)O)ccc34)cc2)c(=O)n(-c2ccccc2)n1C [Example 9, N-(4-((7-(2-hydroxy-2-methylpropoxy)quinolin-4-yl)oxy)phenyl)-1,5-dimethyl-3-oxo-2-phenyl-2,3-dihydro-1H-pyrazole-4-carboxamide]
TGI % (on last day of dosing) U87MG (U87MG glioblastoma cells): 97%

pIC50 (c-Met (h)): 7.57
Structure (SMILES): Cc1c(C(=O)Nc2ccc(Oc3ccnc4cc(OC(C)(C)CO)ccc34)c(F)c2)c(=O)n(-c2ccccc2)n1C [Example 14, N-(3-fluoro-4-((7-((1-hydroxy-2-methylpropan-2-yl)oxy)quinolin-4-yl)oxy)phenyl)-1,5-dimethyl-3-oxo-2-phenyl-2,3-dihydro-1H-pyrazole-4-carboxamide]

pIC50 (c-Met (h)): 8.00 | pIC50 (KDR (h) (VEGF-R2(h))): 7.40
Structure (SMILES): COc1cc2c(Oc3ccc(NC(=O)c4c(C)n(C)n(-c5ccccc5)c4=O)cc3F)ccnc2cc1OCC(C)(C)O [Example 4, N-(3-fluoro-4-((7-(2-hydroxy-2-methylpropoxy)-6-methoxyquinolin-4-yl)oxy)phenyl)-1,5-dimethyl-3-oxo-2-phenyl-2,3-dihydro-1H-pyrazole-4-carboxamide]

pIC50 (c-Met (h)): 8.15 | pIC50 (KDR (h) (VEGF-R2(h))): 7.64
Structure (SMILES): Cc1c(C(=O)Nc2ccc(Oc3ccnc4cc(OC[C@@H](C)O)ccc34)c(F)c2)c(=O)n(-c2ccccc2)n1C [Example 2, (R)—N-(3-fluoro-4-((7-(2-hydroxypropoxy)quinolin-4-yl)oxy)phenyl)-1,5-dimethyl-3-oxo-2-phenyl-2,3-dihydro-1H-pyrazole-4-carboxamide]
TGI % (on last day of dosing) MKN45 [4]: 22% | TGI % (on last day of dosing) MDA-MB-231 ([5]; 10 mg/kg p.o. QD): 72% | TGI % (on last day of dosing) MDA-MB-231 ([5]; 20 mg/kg p.o. QD): 87% | TGI % (on last day of dosing) MDA-MB-231 ([5]; 40 mg/kg p.o. QD): 96% | inhibition of growth of MDA-MB-231 xenograft tumors (in words) [5]: inhibited the growth; also recorded: statistically significant, dose-dependent inhibition
